Common to all, as to format: functional
The subject of assay [1] is Mus musculus. As to the kind of experiment: Average weight change in treated P388 leukemia mice to that of control mice on administration of 400 mg/kg of compound in a q. d. 1-5 schedule.
In assay [2] the test system is Mus musculus. Nature of the assay: Median life span of the treated P388 leukemia mice to that of control mice after intraperitoneal administration of 50 mg/kg of compound in a q.d. 1-9 schedule; 10.5/10.9.
Assay [3] has as its system Mus musculus. As to the kind of experiment: Life span ratio of P388 leukemia mice treated to that of control mice at dose 600 mg/kg, ip. Conditions: route intraperitoneal.
Assay [4] has as its system Mus musculus. As to the kind of experiment: Median life span of the treated P388 leukemia mice to that of control mice after intraperitoneal administration of 100 mg/kg of compound in a q.d. 1-9 schedule; 11.4/11.3.
Assay [5] relates to Mus musculus. As to the kind of experiment: Average weight change in treated L1210 leukemia mice to that of control mice on administration of 100 mg/kg of compound in a q. d. 1-9 schedule.
Assay [6] deals with Mus musculus. As to the kind of experiment: Median life span of the treated P388 leukemia mice to that of control mice after intraperitoneal administration of 400 mg/kg of compound in a q.d. 1-5 schedule; 14.3/11.9.
The test system of assay [7] is Mus musculus. As to the kind of experiment: Average weight change in treated P388 leukemia mice to that of control mice on administration of 100 mg/kg of compound in a q. d. 1-9 schedule.
The subject of assay [8] is Mus musculus. As to the kind of experiment: Number of deaths recorded in mice with P388 leukemia on days 1-5 after intraperitoneal administration of 400 mg/kg of compound in a q.d. 1-5 schedule; 0/6.
In assay [9] the test system is Mus musculus. As to the kind of experiment: Life span ratio of P388 leukemia mice treated to that of control mice at dose 200 mg/kg, ip. Conditions: route intraperitoneal.
In assay [10] the test system is Mus musculus. As to the kind of experiment: Number of deaths recorded in mice with P388 leukemia on days 1-5 after intraperitoneal administration of 100 mg/kg of compound in a q.d. 1-9 schedule; 0/6.
For assay [11], the system named is Mus musculus. Nature of the assay: Average weight change in treated P388 leukemia mice to that of control mice on administration of 600 mg/kg of compound in a q. d. 1-5 schedule.
The test system of assay [12] is Mus musculus. As to the kind of experiment: Life span ratio of L1210 leukemia mice treated to that of control mice at dose 100 mg/kg, ip. Conditions: route intraperitoneal.
Assay [13] relates to Mus musculus. As to the kind of experiment: Number of deaths recorded in mice with P388 leukemia on days 1-5 after intraperitoneal administration of 600 mg/kg of compound in a q.d. 1-5 schedule; 0/6.
Assay [14] concerns Mus musculus. Nature of the assay: Life span ratio of P388 leukemia mice treated to that of control mice at dose 50 mg/kg, ip. To be noted: route intraperitoneal.
The subject of assay [15] is Mus musculus. As to the kind of experiment: Median life span of the treated P388 leukemia mice to that of control mice after intraperitoneal administration of 200 mg/kg of compound in a q.d. 1-5 schedule 12.0/11.9.
Assay [16] deals with Mus musculus. Nature of the assay: Number of deaths recorded in mice with P388 leukemia on days 1-5 after intraperitoneal administration of 50 mg/kg of compound in a q.d. 1-9 schedule; 0/5.
Assay [17] relates to Mus musculus. Nature of the assay: Life span ratio of P388 leukemia mice treated to that of control mice at dose 100 mg/kg, ip. Conditions: route intraperitoneal.
For assay [18], the system named is Mus musculus. Nature of the assay: Number of deaths recorded in mice with L-1210 leukemia on days 1-5 after intraperitoneal administration of 100 mg/kg of compound in a q.d. 1-9 schedule; 0/6.
Assay [19] relates to Mus musculus. Nature of the assay: Number of deaths recorded in mice with P388 leukemia on days 1-5 after intraperitoneal administration of 200 mg/kg of compound in a q.d. 1-5 schedule; 0/6.
The test system of assay [20] is Mus musculus. As to the kind of experiment: Average weight change in treated P388 leukemia mice to that of control mice on administration of 200 mg/kg of compound in a q. d. 1-5 schedule.
Assay [21] has as its system Mus musculus. As to the kind of experiment: Median life span of the treated P388 leukemia mice to that of control mice after intraperitoneal administration of 600 mg/kg of compound in a q.d. 1-5 schedule; 13.1/12.0.
For assay [22], the system named is Mus musculus. Nature of the assay: Average weight change in treated P388 leukemia mice to that of control mice on administration of 50 mg/kg of compound in a q. d. 1-9 schedule.
The subject of assay [23] is Mus musculus. Nature of the assay: Life span ratio of P388 leukemia mice treated to that of control mice at dose 400 mg/kg, ip. To be noted: route intraperitoneal.
The subject of assay [24] is Mus musculus. Nature of the assay: Median life span of the treated L1210 leukemia mice to that of control mice after intraperitoneal administration of 100 mg/kg of compound in a q.d. 1-9 schedule; 8.3/8.2.
Assay [25] deals with Mus musculus. Nature of the assay: Number of deaths recorded in mice with P388 leukemia on days 1-5 after intraperitoneal administration of 50 mg/kg of compound in a q.d. 1-9 schedule; 0/6.
The subject of assay [26] is Mus musculus. Nature of the assay: Average weight change in treated mice to that of control mice on the same day of administration of 50 mg/kg of compound in a q. d. 1-9 schedule.
For assay [27], the species on record is Mus musculus. As to the kind of experiment: Median life span of the treated mice to that of control mice; 11.1/10.9.
Assay [28] concerns Mus musculus. Nature of the assay: Life span ratio of mice treated to that of control mice at dose 50 mg/kg, ip. Conditions: route intraperitoneal.

As for `O=c1[nH]c(=O)n([C@H]2C[C@H](O)[C@@H](CO)O2)cc1F` [FLOXURIDINE], the Weight change in the assay with Mus musculus [1] is reported as -0.3 g; in the assay on Mus musculus [5], -0.5 g; in the assay with Mus musculus [7] it was 0.6 g; with Mus musculus [11], -0.7 g; with Mus musculus [20] it was 0.8 g; in the assay on Mus musculus [22], 1 g. The Median life span turned out to be 10.5 days in the assay on Mus musculus [2]; 11.4 days in the assay with Mus musculus [4]; 14.3 days with Mus musculus [6]; 12 days in the assay with Mus musculus [15]; 13.1 days with Mus musculus [21]; 8.3 days with Mus musculus [24]. Moreover, the T/C turned out to be 109% in the assay on Mus musculus [3]; 100% with Mus musculus [9]; 101% in the assay on Mus musculus [12]; 96% in the assay on Mus musculus [14]; 100% with Mus musculus [17]; 120% in the assay with Mus musculus [23]. Also, the No. of deaths in the assay with Mus musculus [8], with Mus musculus [10], with Mus musculus [13], in the assay with Mus musculus [16], with Mus musculus [18] and in the assay with Mus musculus [19] was 0 throughout.

In turn, `O=c1[nH]c(=O)n(C2CC(CO)C(O)C2O)cc1F` (stereo not drawn) showed a No. of deaths with Mus musculus [25] of 0. Moreover, the Weight change in the assay on Mus musculus [26] is on record as 0.9 g. The same compound gave a Median life span in the assay listed under Mus musculus [27] of 11.1 days. Besides, the T/C in the assay on Mus musculus [28] is given as 101%.

(Values after ChEMBL document CHEMBL1121697, “Carbocyclic analogues of 5-fluorouracil nucleosides” (1981).)
